In data set [1] the test system is AEG-1 promoter. As to the kind of experiment: AEG-1 promoter luciferase reporter in THV/THR astrocytes. In kind it is cell-based, human. The text has this:
(§1) Construction of plasmids: The full-length AEG-1 promoter DNA used in this analysis has a 3′ boundary 1 base-pair 5′ to the translation initiation site (ATG codon) of the AEG-1 gene (designated as nucleotide 1 in FIG. 7; SEQ ID NO:2) and extends 2759 bp upstream. The genomic DNA region corresponding to the AEG-1 promoter was isolated by PCR using the PCRx Enhancer System (Invitrogen, Carlsbad, Calif.) with forward primer: 5′-[…] -3′ (KpnI site underlined) (SEQ ID NO:4) and reverse primer: 5′-[…]-3′ (XhoI site underlined) 9SEQ ID NO:5). PCR conditions were as follows: Denaturation 95° C., 30 sec; annealing 55° C., 30 sec and extension 68° C., 3 min, repeated for 30 cycles. This region of genomic DNA was cloned into the luciferase reporter pGL-3 basic (Promega, Madison, Wis.) using restriction sites in KpnI and XhoI in the plasmid polylinker.
(§2) Transient transfection and luciferase assay. CREF, CREF-ras, FM516, FM516-ras, THV and THR cells were plated on 24-well plates one day prior to transfection. […] Luciferase activity was measured and normalized against β-galactosidase activity produced by a co-transfected vector as described (17). […]
(§3) Effect of inhibition of PI3 Kinase, MEK kinase and p38 MAP kinase on AEG-1 promoter activity. Signal transduction pathways impinging on or directly downstream of the RAS pathway were analyzed to determine their effect on AEG-1 promoter activity (FIGS. 13 A-E). […]

For data set [2], the system named is AEG-1 promoter. Nature of the data set: AEG-1 promoter luciferase reporter in CREF and CREF-ras fibroblasts. In kind it is cell-based, rat.
Text: as §1, §2, §3

Data set [3] deals with AEG-1 promoter. Nature of the data set: AEG-1 promoter luciferase reporter in C2 and C10 cell lines. The data set is classed as cell-based, human.
Text: as §1
Cell treatment with inhibitors. The PI3 kinase inhibitor LY294002, MEK inhibitor PD 98059 and p38 MAP Kinase inhibitor SB 203580 were used to treat cells at the indicated concentration and to determine the effect of inhibition of the respective pathway on AEG-1 promoter activity using the AEG-1 luciferase reporter.
The colorectal cancer cell line HCT116 which is mutated in the k-RAS gene was also tested for AEG-1 promoter activity in addition to two related cell lines. […]
For orientation: Reporter assays use an easily measured gene product as a stand-in for the process of interest.

For data set [4], the system named is AEG-1 promoter. Nature of the data set: AEG-1 promoter luciferase reporter co-transfected with HIV Tat or Nef expression constructs. The data set is classed as cell-based, human. To be noted: plasmid expression vector 50 to 800 ng/transfection point.
Text: as §1
(§4) Other mediators of AEG-1 promoter activity. The HIV-Tat (Simm et al Virology 2002;294(1);1-12) and Nef (Lathi et al., Virology. 2003; 310(1):190-196) gene products were tested on the full length AEG-1 promoter at a plasmid expression vector concentration range of 50 to 800 ng/transfection point (FIG. 16). […] Thus, the AEG-1 promoter appears to be responsive to protein products produced by HIV infection of cells.

For data set [5], the system named is AEG-1. To be noted: PHFA, by 7-days; cited from earlier work.
The subject of data set [6] is glutamate transporter (EAAT2). To be noted: astrocytes; cited from earlier work.
The subject of the next data set is EAAT2 promoter. The note with it: PHFA; cited from earlier work.
Data set [7] deals with AEG-1 promoter. Nature of the data set: AEG-1 promoter luciferase reporter in primary human fetal astrocytes. The data set is classed as cell-based. To be noted: PHFA, 0.1 to 100 μM.
Text: as §1, §4

Data set [8] has as its system AEG-1. Nature of the data set: Western blot of AEG-1 protein after siRNA transfection. In kind it is cell-based, human. The note with it: U87-MG and U251-MG cells transiently transfected, 24 hours. The method, then:
Western blotting and immunofluorescence microscopy. Whole cell lysates were prepared and Western blotting was performed as described (17). Antibodies used in specific experiments are described in the text or in corresponding figure legends. For immunofluorescence microscopy, IM-PHFA, grown on chamber slides, were probed with anti-AEG-1 and anti-calreticulin primary antibodies and FITC-conjugated anti-chicken and rhodamine-conjugated anti-rabbit secondary antibodies, respectively. Alternatively, IM-PHFA were loaded with Mito-Tracker (Molecular probes) and then immunocytochemistry was performed using anti-AEG-1 antibody and rhodamine-conjugated anti-chicken secondary antibody. Cells were visualized using a Zeiss confocal laser scanning microscope (LSM510) and a 100× objective.
Construction of AEG-1 siRNA. The sequence (5′ AGCAGCCACCAGAGATTGA 3′) (SEQ ID NO:3) used for AEG-1 silencing corresponds to the 449-467 nucleotides of the AEG-1 ORF. The siRNA was constructed with Silencer™ siRNA kit according to manufacturer's protocol. A control scrambled siRNA was used to determine specificity of the inhibition and the sequence 5′ GGGTCGTCTA TAGGGATCGAT 3′(SEQ ID NO:10)
Effect of inhibition of AEG-1 on anchorage independent growth of malignant glioma cells. U87-MG and U251-MG cells were transiently transfected with siRNA for the AEG-1 gene and control scrambled siRNA using Lipofectamine. […]
For orientation: A western blot detects proteins with antibodies after separation by electrophoresis.

Data set [9] has as its system U87-MG cells. As to the kind of experiment: Matrigel invasion assay (Transwell). The data set is classed as cell-based, human. To be noted: 72 h, vs control scrambled siRNA. As to the method: (§5) Matrigel invasion assay. Cell were cultured, transfected and harvested essentially as described above for soft-agar colony formation assays. Cells were mixed with Matrigel and plated on […] pore-size tissue culture inserts. After 72 h or a pre-optimized time depending on the cell line, Matrigel was removed and the inserts were stained with Geimsa stain to enumerate the number of cells that had passed through the tissue culture insert membrane.
(§6) Effect of inhibition of AEG-1 on invasiveness of malignant glioma cells. U87-MG and U251-MG cells were transiently transfected with siRNA for AEG-1 and with control scrambled siRNA using Lipofectamine. 24 hours after transfection cells were seeded in the upper compartment of a Transwell™ unit (Becton Dickinson) and then incubated for 72 h at 37° C. The lower compartment contained 0.5 ml of DMEM and 5% FBS. At the end of the invasion assay, the filters were removed, fixed, and stained.

The subject of data set [10] is U251-MG cells. As to the kind of experiment: Matrigel invasion assay (Transwell). In kind it is cell-based, human. The note with it: 72 h, vs control scrambled siRNA. The method, then:
as §5, §6

Data set [11] relates to U87-MG cells. As to the kind of experiment: Soft agar cloning efficiency. The data set is classed as cell-based, human. To be noted: transient transfection vs control scrambled siRNA. As to the method: (§7) Soft agar colony formation and Matrigel invasion assay. FM-516SV cells (2×10^5 cells/6-cm plate) plated the previous day were transfected with either pcDNA3.1, pcDNA3.1 AEG-1, T24 Ha-ras (20 μg each), or AEG-1/T24 Ha-ras (10+10 μg). Two days later, transfected cells were harvested by trypsinization and re-plated in soft agar (0.4%) overlaying 0.8% base agar. Two weeks later, colonies over ˜50 cells in soft agar were identified microscopically and counted. Soft agar colony formation assay was also performed with FM-516SV AEG-1 stable transfectants established by transfection of pcDNA3.1 AEG-1 and T24 Ha-ras and G418 selection.
(§8) Effect of inhibition of AEG-1 on anchorage independent growth of malignant glioma cells. U87-MG and U251-MG cells were transiently transfected with siRNA for the AEG-1 gene and control scrambled siRNA using Lipofectamine. 24 hours after transfection 1×10^5 cells from the transfection mixture were replated to determine agar cloning efficiency. In parallel, cell extracts were prepared for western blot analysis.

Data set [12] has as its system U251-MG cells. As to the kind of experiment: Soft agar cloning efficiency. In kind it is cell-based, human. The note with it: transient transfection vs control scrambled siRNA. As to the method: as §7, §8

Data on seven compounds can be found in patent US20080200412A1, “Astrocyte Elevated Gene-1 And Its Promoter In Treatments For Neurotoxicity And Malignancy” (priority 2005, published 2008).

With `COc1cccc(-c2cc(=O)c3ccccc3o2)c1N` [PD 98059], the “AEG-1 promoter activity (luciferase)” value is recorded as “dose dependent inhibition” in the data set on AEG-1 promoter [1] (20 and 50 μM); “dose dependent inhibition” in the data set on AEG-1 promoter [2] (20 and 50 μM). Also, in the data set with AEG-1 promoter [3], the “AEG-1 promoter activity, responsiveness to inhibitor” value is “not responsive”.
Take “Tat gene product: HIV-Tat gene product expressed from a co-transfected plasmid expression vector”: the “stimulation of AEG-1 promoter activity” value with AEG-1 promoter [4] is reported as 1.5 fold.
Regarding “gp120: HIV-1 gp120 envelope protein used to treat astrocytes”, in the data set with AEG-1 [5], the “AEG-1 expression over control” value was 3 fold. In addition, the “reduction in glutamate uptake” value in data set [6] is listed as approximately 60%. Also, the “decrease of EAAT2 promoter activity” value with EAAT2 promoter is reported as approximately 2.5 fold.
As for `Nc1ncnc2c1nc(Br)n2[C@@H]1O[C@@H]2COP(=O)(O)O[C@H]2[C@H]1O` [Bromo-cyclicAMP], the “AEG-1 promoter activity (luciferase)” value in the data set on AEG-1 promoter [7] is “dose responsive stimulation”.
In the case of `C[S+]([O-])c1ccc(-c2nc(-c3ccncc3)c(-c3ccc(F)cc3)[nH]2)cc1` (centres unmarked) [SB 203580], the “AEG-1 promoter activity (luciferase)” value in the data set on AEG-1 promoter [1] (5 μM) and in the data set with AEG-1 promoter [2] (5 μM) was “inhibition of promoter activity was observed” in each case.
As to TNFα, the “AEG-1 expression over control” value with AEG-1 [5] is 3 fold. Besides, in the data set on EAAT2 promoter, the “decrease of EAAT2 promoter activity” value is listed as approximately 2.5 fold.
On to “siRNA for AEG-1: siRNA with sequence 5′ AGCAGCCACCAGAGATTGA 3′ (SEQ ID NO:3), corresponds to nucleotides 449-467 of the AEG-1 ORF (listed as DNA, chemistry not given here)”, for which, in the data set on AEG-1 [8], the “AEG-1 protein knock down (Western blot)” value is “efficient protein knock down”. In addition, the Matrigel invasion result in the data set with U87-MG cells [9] and in the data set with U251-MG cells [10] was “significantly inhibited” throughout. Further, the agar cloning efficiency entry in the data set with U87-MG cells [11] and with U251-MG cells [12] was “significantly inhibited” throughout.
